How the values were obtained:
Assay type in all cases: cell-based
NAMPT 3′-UTR = experiment: Luciferase reporter assay with NAMPT 3′-UTR; details: after transfection
Excerpt: To perform the reporter assay, the regulatory region of NAMPT is cloned […] of the Firefly luciferase gene in an expression vector, and the resulting recombinant vector, e.g., pLightSwitch 3′UTR, is transfected into cells along with an expression vector comprising the Renilla gene serving as reference. In accordance with some embodiments described herein, a target reporter vector containing the full-length wild type NAMPT 3′ untranslated region (3′-UTR) (pLightSwithch NAMPT 3′UTR) purchased from GeneCopoeia™ (Rockville, Md., USA) was co-transfected into NALM-6 cells along with Renilla luciferase vector as internal vector control. The NAMPT 3′-UTR contains miRNA response elements (MREs), to one of which miRNA-451 specifically binds. Twenty-four hours before transfection, NALM-6 cells were plated in 6 wells until 70% confluent. Two hundred (200) pmol miR-451 mimic, 200 pmol scrambled miR (both purchased from IDT®-Syntezza, Jerusalem, Israel) or 2 μg antagomiR-451 plasmid (GeneCopoeia™, Rockville, Md., USA) were transiently transfected into NALM-6 cells together with 2 μg pLightSwitch NAMPT 3′UTR and Renilla luciferase vector. […] Briefly, cells were collected, lysed to release all proteins (including the luciferase), luciferin was added along with all the necessary cofactors, and the enzymatic activity was quantitatively measured using a luminometer. […]

CXCL16 = experiment: Western blot of CXCL16 in transfected NALM-6 cells; details: NALM-6 transient
Excerpt: Protein was extracted from NALM-6 cell line using Qproteome™ lysis buffer (Qiagen, Hilden, Germany). The membrane was then probed with one or more of the following antibodies: anti-disintegrin and metalloproteinase domain-containing protein 10 (ADAM10) (1:1000) (Abcam; Cambridge, UK) (see Example 9); anti-chemokine C-X-C motif 16 (CXCL16) (1:1000); anti-NAMPT (1:1000); and anti-GAPDH (1:5000) (Santa Crus Biotechnology, Santa Crus, Calif., USA) (see Examples 5 and 9). The secondary antibodies were goat anti-mouse and goat anti-rabbit (1:10,000) (Sigma®, Saint Louis, Mo., USA), for each antigen according to the manufacturer's instructions. […]
Intensity of the protein band was measured using an in-house program. […]
Possible miR-451 targets were evaluated using several open access software programs (e.g., Targetscan, PicTar, miRanda, miRDB). […] In the first screening, the suppression of ADAM10, CXCL16 and NAMPT protein level was analyzed in NALM-6 cells transiently expressing miR-451 mimic (SEQ ID NO: 2) and in cells transiently expressing scrambled-miR (universal sequence; negative control) by Western blot as described in Materials and Methods. […]

NAMPT = NAMPT expression by FACS in transfected Nalm-6 cells
Protocol: One to two million NALM-6 transfected cells were collected 48 hours after transfection and fixed using 500 μl fixation and permeabilization buffer prior to immunofluorescent staining of intracellular proteins (e.g., BD Phosflow™ Fix Buffer I (BD Biosciences, San Jose, Calif., USA)) for 15 minutes. Then, pellets were washed twice using PBS and resuspended in 500 μl methanol. Samples were incubated for 2 hours in −20° C. For staining, pellets were washed with PBS and resuspended in 10 ml BD™ Cell Wash buffer (BD Biosciences, San Jose, Calif., USA) containing 2% FCS. The cells were stained for NAMPT using anti-NAMPT antibody (Ab) (1:1000) (R&D Systems®, MN, USA). […] The cells were sorted on flow cytometer (Calibur™ flow cytometer, Becton Dickinson, Le Pont-De-Claix, France) and analyzed using BD CellQuest™ Pro software.
Using open access software programs (TargetScan and miRanda), NAMPT was identified as a predicted target of miR-451. […] NAMPT expression was measured by FACS analysis using a specific NAMPT antibody.
In order to assess a possible association or correlation between miR-451 expression levels and sensitivity to in-vivo treatment of ALL with a NAMPT inhibitor, the effect of the NAMPT inhibitor FK866 was assessed in the presence of elevated levels or lowered levels of miR-451 in ALL xenograft mouse model. […] Tumors volume was measured daily.

Substance: miR-451 mimic: a dsmiR-451 designed to copy or mimic the functionality of mature endogenous miR-451 upon transfection (AAACCGUUACCAUUACUGAGUU; double-stranded mimic, further chemistry not given here; listed as Homo sapiens)
- relative luciferase activity of NAMPT 3′-UTR reporter decreased by (NAMPT 3′-UTR): 80%
- CXCL16 protein level compared to scrambled-miR (CXCL16): only NAMPT protein expression levels were reduced
- NAMPT protein expression decreased by (NAMPT): 46%
